The values below come from PMC9959553, “Promising Antifungal Molecules against Mucormycosis Agents Identified from Pandemic Response Box®: In Vitro and In Silico Analyses” (Journal of Fungi, 2023).

The term MFC denotes the lowest tested concentration that kills the fungus rather than only halting it. One may read the MIC50 as an inhibitory concentration at the 50% level, which refers to growth in some studies and to a panel of isolates in others. A word on the inhibition: it is the drop in the measured response relative to a control, in per cent. As usually defined, the CC50 is the concentration giving 50% cytotoxicity.

The test system of data set [1] is R. oryzae, R. microsporus and R. stolonifer. The data set is described as follows: Antifungal susceptibility testing, values stated over the three species. The format is cell-based. Particulars: over the three Rhizopus species. The procedure: (§1) The susceptibility of the Rhizopus species to MMV396785 (alexidine), MMV1580844, MMV642550 and MMV019724 was determined using the broth microdilution method, according to EUCAST protocols, with modifications. Posaconazole and amphotericin B were also used as reference antifungal drugs because they are commonly used for the treatment of mucormycosis. […] A standardized suspension of conidia (2 × 10^5/mL) was added to the wells and incubated for 48 h at 37 °C, in a 5% CO2 atmosphere. Fungal growth was analyzed via spectrophotometry readings at 600 nm and cell viability was assessed using the XTT reduction assay. Minimum inhibitory concentration (MIC) of each compound was defined as the lowest concentration that inhibits 50% of fungal growth, because these fungi are highly resistant to antifungal drugs and a reduction in half of their growth is relevant. […] MFC values were defined as the lowest drug concentration able to arrest fungal growth.

For data set [2], the system named is R. stolonifer. Briefly: Antifungal susceptibility testing (broth microdilution, MIC and MFC). Type of data set: cell-based, Rhizopus stolonifer. Particulars: for MIC50 / MFC: Rhizopus stolonifer, 48 h; for MIC50: lowest concentration that inhibits 50% of fungal growth; for MFC: subculture in drug-free medium. On the procedure: as §1
Data set [3] relates to R. oryzae UCP1295. The data set is described as follows: Antifungal drug synergy assay, checkerboard method (FICI). Type of data set: cell-based, Rhizopus oryzae. Particulars: Rhizopus arrhizus, UCP1295, 48 h; drug alone; read-out: MIC50 Alone. The procedure:
(§2) Synergistic interactions were evaluated using the checkerboard method according to EUCAST guidelines (EUCAST 2008). R. oryzae conidia (2 × 10^5/mL) were grown in 96-well plates containing supplemented RPMI in the presence of the following selected compounds: […] An inhibition of at least 50% was defined as the cut-off for minimum inhibitory concentration (MIC). Interactions were determined by the fractional inhibitory concentration index (FICI), which was calculated using the following formula: (MIC combined/MIC drug A alone) + (MIC combined/MIC drug B alone). […] The Bliss independence model calculation was performed according to […] colleagues and Zhao and colleagues. The following formula was used to assess drug interaction: […] The results were classified as follows: synergistic effect when Eobs > Eexp; indifference when Eobs = Eexp; antagonistic effect when Eobs < Eexp.

For data set [4], the system named is R. oryzae UCP1295. Briefly: Screening of the Pandemic Response Box library at 5 µM. The format is cell-based, Rhizopus oryzae. Particulars: for inhibition at 5 µM: Rhizopus arrhizus, UCP1295, 48 h; for Viability Inhibition (XTT): XTT reduction; for % of growth inhibition, Mean: 48 h. The method, boiled down:
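Compounds at 5 μM in RPMI 1640 with 2% glucose and MOPS (0.165 mol/L, pH 7.2), with conidia at 2 × 10^5/mL, incubated 48 h at 37 °C in 5% CO2. Growth read by OD at 600 nm; hits defined as ≥60% inhibition. Posaconazole (5 μM) and 1% DMSO as controls.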
(Formazan colour is commonly taken as a measure of viable cells.)

The test system of data set [5] is R. oryzae. Briefly: Antifungal drug synergy assay, Bliss independence model. Type of data set: cell-based, Rhizopus oryzae. Further details: key to Interaction: S, synergistic interaction; A, antagonist interaction; Efficacy of Combined Drugs, E obs / Efficacy of Combined Drugs, E exp: concentration or dose not given beside the values. Conditions: for Efficacy of Drugs Alone (% of Inhibition), MIC50: at MIC50; for Efficacy of Drugs Alone (% of Inhibition), ½ MIC50: at ½ MIC50; for ΔE: Eobs minus Eexp; for Efficacy of Combined Drugs, E exp: expected by Bliss calculation. On the procedure: as §2

Data set [6] deals with R. microsporus. Briefly: Antifungal susceptibility testing (broth microdilution, MIC and MFC). Type of data set: cell-based, Rhizopus microsporus var. microsporus. Conditions: for MIC50 / MFC: Rhizopus microsporus, 48 h; for MIC50: lowest concentration that inhibits 50% of fungal growth; for MFC: subculture in drug-free medium. The procedure: as §1
Data set [7] concerns R. oryzae. Described as above. The format is cell-based, Rhizopus oryzae. Conditions: for MIC50 / MFC: Rhizopus arrhizus, 48 h; for MIC50: lowest concentration that inhibits 50% of fungal growth; for MFC: subculture in drug-free medium. On the procedure: as §1
Data set [8] deals with R. oryzae cells. The data set is described as follows: Analysis of fungal cell alterations with fluorescent staining. The format is cell-based, Rhizopus oryzae. Conditions: ½× MIC50, 48 h. On the procedure: Alterations of R. oryzae cells caused by alexidine, MMV1580844, MMV642550 and MMV019724 were analyzed using fluorescent staining. Chitin, nucleic acid, oxidative stress, mitochondrial membrane potential and neutral lipid content were evaluated using calcofluor white (Sigma-Aldrich, MO, USA), Sytox Blue (ThermoFisher, Waltham, MA, USA), 2′,7′–dichlorofluorescein diacetate (DCFH-DA) (Sigma-Aldrich, MO, USA), JC-1 probe (ThermoFisher, Waltham, MA, USA) and Nile Red (Sigma-Aldrich, MO, USA), respectively. […] Cells were stained with 25 μg/mL of calcofluor white, 20 μM of Sytox Blue, 50 μg/mL of DCFH-DA, 10 μg/mL of JC-1 or 20 μg/mL of Nile Red, all of them for 1 h at 37 °C in the dark. Samples were washed three times to remove residual dye and suspended in PBS. Fluorescence intensity was measured using the SpectraMax 340 microplate reader (Molecular Devices, San José, CA, USA) under the following conditions: calcofluor white at 350 nm (excitation) and 432 nm (emission); Sytox Blue at 444 nm (excitation) and 480 nm (emission); DCFH-DA at 492 nm (excitation) and 517 nm (emission); JC-1 at 475 nm (excitation) and 529 nm (green fluorescence) or 590 nm (red fluorescence) for the calculation of the red/green fluorescence intensity; and Nile Red at 550 nm (excitation) and 635 nm (emission).

Data set [9] concerns R. microsporus preformed biofilm. Briefly: Preformed biofilm assay. Type of data set: cell-based, Rhizopus microsporus. Conditions: R. microsporus, based on biofilm viability parameter. On the procedure: (§3) For the preformed biofilm assay, cells were cultured as described above in the absence of the compounds. […] An additional incubation of 24 h at 37 °C was performed to evaluate the anti-biofilm activity. Evaluation of both biofilm formation and preformed biofilms was performed using three parameters as previously described. Crystal violet, safranin and XTT assays were used to analyze the overall biomass, extracellular matrix and metabolic activity, respectively.

Data set [10] in a line: Cytotoxicity assay (neutral red). Type of data set: cell-based, murine. Particulars: mouse, RAW 264.7 macrophage cells. On the procedure: (§4) Cytotoxicity of alexidine, MMV1580844, MMV642550 and MMV019724 was performed using three cell lineages: RAW 264.7, a murine macrophage culture; A549, adenocarcinomic human alveolar basal epithelial cells; and HaCaT, a spontaneously transformed aneuploid immortal keratinocyte cell line from adult human skin. Cells were grown in DMEM (Dulbecco’s Modified Eagle’s Medium, Sigma-Aldrich, MO, USA), supplemented with 10% fetal bovine serum and incubated for 48 h at 37 °C with 5% CO2 in the presence of serially diluted concentrations (0.3–50 μM) of each compound. Cell viability was measured using the neutral red (NR) assay and quantified using a spectrophotometer at 595 nm (SpectraMax® i3x, Molecular Devices®, San José, CA, USA).

The test system of data set [11] is R. stolonifer preformed biofilm. Briefly: Preformed biofilm assay. Type of data set: cell-based, Rhizopus stolonifer. Conditions: R. stolonifer, based on biofilm viability parameter. The procedure:
as §3

A short description of data set [12]: Cytotoxicity assay (neutral red). The format is cell-based. Conditions: human. On the procedure: as §4
The conditions of data set [13]: cited from earlier work.
Setting [14] is: Table S1, mean of the four values, read-out: % of growth inhibition, Mean.
Where [15] appears, read: optical density 600 nm, read-out: Growth Inhibition.
Setting [16] is: Table S1, mean of the four values.

SMILES strings stand for the structures. Converted amounts (≈) assume the structure as drawn. Like-named read-outs stand apart in the source and are kept apart here.

Consider `CC[C@@H]([C@H](C)O)n1ncn(-c2ccc(N3CCN(c4ccc(OC[C@@H]5CO[C@@](Cn6cncn6)(c6ccc(F)cc6F)C5)cc4)CC3)cc2)c1=O` [Posaconazole, reference compound], for which the MFC in [1], in data set [2], in data set [6] and in [7] was greater than 20 µM throughout. In addition, the MIC was 0.63 to 2.5 µM (≈ 0.441 to 1.75 µg/mL) in [1] and 1.25 µM in data set [3]. For the same compound, the MIC50 in data set [2] is 0.63 µM (≈ 0.441 µg/mL); in [6] it was 2.5 µM (≈ 1.75 µg/mL); in data set [7], 1.25 µM (≈ 0.876 µg/mL). The values for the inhibition at 5 µM in data set [4] (setting [14]) and in data set [4] (setting [15]) were 56.3% and 56%, respectively. Further, in [4], the “Viability Inhibition (XTT)” value was 73%. Further, the “Efficacy of Drugs Alone (% of Inhibition), MIC50” value in data set [5] was 63.4 % of Inhibition. Further, in data set [5], the “Efficacy of Drugs Alone (% of Inhibition), ½ MIC50” value is listed as 6.5 % of Inhibition.

In the case of `Oc1cccc(C(Nc2nccs2)c2ccc3cccnc3c2O)c1` (stereo not shown) [MMV642550], the “chitin content (calcofluor white)” value in data set [8] was “decreased”. Moreover, in data set [8], the “neutral lipids (Nile Red)” value is recorded as “decreased”. Further, the results for the MIC in [1] and in data set [3] were 2.5 to 5 µM (≈ 0.874 to 1.75 µg/mL) and 2.5 µM, respectively. For the same compound, the “Selectivity Index (SI), Planktonic Cell” value in data set [2] (R. stolonifer, from CC50 and MIC50 of planktonic cells) is reported as greater than 20; in data set [6] (R. microsporus, from CC50 and MIC50 of planktonic cells), greater than 10; in [7] (R. oryzae, from CC50 and MIC50 of planktonic cells) it was greater than 20. Further, the MIC50 came out at 2.5 µM (≈ 0.874 µg/mL) in [2], 5 µM (≈ 1.75 µg/mL) in data set [6] and 2.5 µM (≈ 0.874 µg/mL) in data set [7]. For the same compound, the MFC in [2], in [6] and in [7] was greater than 20 µM throughout. For the same compound, the inhibition at 5 µM is 59.8% in data set [4] (setting [14]) and 60% in data set [4] (setting [15]). Besides, the “Viability Inhibition (XTT)” value in data set [4] stood at 59%. Moreover, the “Selectivity Index (SI), Preformed Biofilm” value in data set [9] was greater than 5; in [11], greater than 10. The CC50 at 48 h in data set [10] was greater than 50 µM; in data set [12] (A549 alveolar basal epithelial cells, A549, 48 h) it was greater than 50 µM; in data set [12] (HaCaT keratinocyte cells), greater than 50 µM. Further, the “Efficacy of Drugs Alone (% of Inhibition), MIC50” value in [5] was 62.9 % of Inhibition. Further, in data set [5], the “Efficacy of Drugs Alone (% of Inhibition), ½ MIC50” value is given as 42.3 % of Inhibition. The figures for the “Efficacy of Combined Drugs, E obs” value in data set [5] (combined with Amphotericin B) and in data set [5] (combined with Posaconazole) were 78.1% and 60.0%, respectively. In addition, the Interaction entry in [5] (combined with Amphotericin B) is recorded as “S”; in data set [5] (combined with Posaconazole), “A”. In addition, the ΔE is on record as 23.5% in [5] (combined with Amphotericin B) and −26.5% in data set [5] (combined with Posaconazole). For the same compound, the figures for the “Efficacy of Combined Drugs, E exp” value in data set [5] (combined with Amphotericin B) and in data set [5] (combined with Posaconazole) were 54.6% and 86.5%, respectively.

`C[C@@H]1[C@H](O)[C@@H](C)/C=C/C=C/C=C/C=C/C=C/C=C/C=C/[C@H](O[C@@H]2O[C@H](C)[C@@H](O)[C@H](N)[C@@H]2O)C[C@@H]2O[C@](O)(C[C@@H](O)C[C@@H](O)[C@H](O)CC[C@@H](O)C[C@@H](O)CC(=O)O[C@H]1C)C[C@H](O)[C@H]2C(=O)O` [Amphotericin B, reference compound]: the MFC in data set [1], in data set [2], in data set [6] and in data set [7] was greater than 20 µM throughout. The MIC in [1] was greater than 20 µM; in data set [3], 40 µM. Moreover, the MIC50 in data set [2], in data set [6] and in data set [7] was greater than 20 µM each time. Also, the “Efficacy of Drugs Alone (% of Inhibition), MIC50” value in data set [5] is recorded as 79.6 % of Inhibition. Further, the “Efficacy of Drugs Alone (% of Inhibition), ½ MIC50” value in [5] is 21.4 % of Inhibition. Also, the oral bioavailability result in [13] is “negligible”.

On to `Nc1nc(O)c2ncn(COC(CO)CO)c2n1` [MMV001761], for which, in data set [4] (setting [16]), the “% of growth inhibition, Mean” value is -10.5%.

With `CC1CCc2c(N3CCC(O)CC3)c(F)cc3c(=O)c(C(=O)O)cn1c23` (stereo not shown) [MMV637659], the “% of growth inhibition, Mean” value in [4] (setting [16]) is given as -19.1%.

In the case of `COc1cc(NS(=O)(=O)c2ccc(C)cc2)c2ncccc2c1` [MMV098836], the “% of growth inhibition, Mean” value in data set [4] (setting [16]) was determined as 48.1%.

On to `COc1ccc(C2CNC(=O)C2)cc1OC1CCCC1` (stereo not shown) [MMV003738], for which, in [4] (setting [16]), the “% of growth inhibition, Mean” value is listed as -1.4%.

With `CN(C)c1[nH]c(=O)ncc1F` [MMV1782223], in [4] (setting [16]), the “% of growth inhibition, Mean” value is reported as -26.3%.

For the compound `NC(=O)[C@@H]1CC[C@@H]2CN1C(=O)N2OS(=O)(=O)O` [MMV1613560], the “% of growth inhibition, Mean” value in data set [4] (setting [16]) is -12.6%.

Take `CCc1ccc(C2CC(C(F)(F)F)n3ncc(C(=O)NCc4ccc(OC)cc4)c3N2)cc1` (stereo not shown) [MMV831201]: the “% of growth inhibition, Mean” value in data set [4] (setting [16]) is given as -4.6%.
